In the experiment the target is T1, acylpeptide hydrolase (APEH) (Homo sapiens, UniProt P13798).
T1 sequence (P13798 1-732): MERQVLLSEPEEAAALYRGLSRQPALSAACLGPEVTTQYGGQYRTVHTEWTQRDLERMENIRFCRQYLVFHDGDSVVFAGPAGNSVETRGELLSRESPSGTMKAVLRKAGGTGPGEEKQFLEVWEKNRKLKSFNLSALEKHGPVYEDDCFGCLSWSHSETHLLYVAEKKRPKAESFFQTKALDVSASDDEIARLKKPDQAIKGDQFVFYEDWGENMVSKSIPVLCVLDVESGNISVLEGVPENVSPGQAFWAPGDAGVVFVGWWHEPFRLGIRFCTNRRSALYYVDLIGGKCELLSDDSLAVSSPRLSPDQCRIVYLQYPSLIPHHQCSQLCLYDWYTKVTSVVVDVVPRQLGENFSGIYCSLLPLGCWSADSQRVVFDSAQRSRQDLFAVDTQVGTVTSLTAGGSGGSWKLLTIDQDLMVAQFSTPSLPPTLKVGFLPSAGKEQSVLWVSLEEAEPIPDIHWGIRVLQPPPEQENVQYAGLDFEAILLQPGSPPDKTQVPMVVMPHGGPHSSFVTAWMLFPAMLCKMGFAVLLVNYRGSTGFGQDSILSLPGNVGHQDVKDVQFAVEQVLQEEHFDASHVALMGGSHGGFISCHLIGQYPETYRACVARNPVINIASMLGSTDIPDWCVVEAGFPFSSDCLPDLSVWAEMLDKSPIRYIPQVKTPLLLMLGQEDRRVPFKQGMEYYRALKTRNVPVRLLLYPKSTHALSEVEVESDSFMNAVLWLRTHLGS
Description: competitive ABPP with TAMRA-FP in human erythrocyte lysate and saponin-isolated parasite lysate; also intact erythrocytes. Format: biochemical.

The IC50 is the point on the concentration scale where inhibition reaches its midpoint. Lower therefore signals higher potency.

For `CC(C)CC(O)(CC(C)C)c1cnn(C(=O)N2CCCC2)n1` [AA74-1], the IC50 was determined as 7.4 ± 2.4 nM.

The record behind these values is PMC6506615, “Internalization of Erythrocyte Acylpeptide Hydrolase Is Required for Asexual Replication of Plasmodium falciparum” (mSphere, 2019).
